Like-named read-outs stand apart in the source and are kept apart here.
How the values were obtained:
[1] = format: physicochemical; design: key to Fibril / Fibril Formation / TEM 2cat / Fibril: 1 = fibrils present; 0 non-fibrillar structures; settings: for Fibril / Fibril Formation: TEM, 1 mg/mL, uranyl acetate stain, qualitative
[2] = format: physicochemical; settings: for ThT Cat. / ThT-Fluorescence (categorical): ThT-active if fluorescence at least twice the control
In short: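 Fibrils (1 mg/mL solution) were mixed with 50 µM ThT in PBS for 15 min at RT, and fluorescence was read at λex 440/λem 488 nm against a PBS blank, as a triplicate mean ± SD. Zeta potential came from electrophoretic mobility (Smoluchowski) after 1 d aggregation at 1 mg/mL in PBS pH 7.4, diluted into 1 mM KCl.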

[3] = ThT fluorescence relative to blank, blank = 42.1851851851852
[4] = ThT fluorescence relative to blank (42.1851851851852 a.u.)
[5] = relative to blank 42.1851851851852 a.u.

| Substance | TEM: 1= fibrils, 0= aggregates (micelle), 0.5 = aggregates and fibrils, -1 = nothing obersved, STD prep [1] | Tht rel to blank (42.1851851851852) [2, 3] | Tht category (> 1.5 to blank = +) ([2]; category 1/0) | further results |
| --- | --- | --- | --- | --- |
| KAKQAANMWQ [JG6] | 0.5 | 1.208 | 0 (ThT-inactive (N-Fold <2)) |  |
| CKFKFPF |  |  |  | Fibril / Fibril Formation [1]: 0; ThT Cat. / ThT-Fluorescence (categorical) [2]: 0 (ThT-inactive (N-Fold <2)) |
| KIKQIIN [JGA3] | 0.5 |  |  | Tht rel to blank (42.1851851851852) [2, 4]: 1.148 |
| KFKFQFF [TG6] | 1 | 2.58 | 1 (ThT. Cat is 1, if Rel. ThT >2) | Tht rel to blank (42.1851851851852) [2, 4]: 2.58; Tht rel to blank (42.1851851851852) [2, 5]: 2.58 |
| KIKIQIMQWN [VH16] |  |  |  | TEM: 1= fibrils, 0= aggregates (micelle), 0.5 = aggregates and fibrils, -1 = nothing obersved, STD prep ([1]; FigS26): 1; Tht category (> 1.5 to blank = +) ([2]; FigS26): 0 (Tht category (> 1.5 to blank = +)) |
| KIKIQINMWQRGD [VH17-II] | 0 |  | 0 (ThT-inactive (N-Fold <2)) | Tht category (> 1.5 to blank = +) ([2]; FigS26): 0 (Tht category (> 1.5 to blank = +)); Tht rel to blank (42.1851851851852) [2, 5]: 1.548 |
| HIHIQIC [CN12] | 1 | 12.46 | 1 (ThT. Cat is 1, if Rel. ThT >2) |  |
| RQGNINIVA [reference compound] |  |  |  | Fibril / Fibril Formation [1]: 1; ThT Cat. / ThT-Fluorescence (categorical) [2]: 1 (ThT. Cat is 1, if Rel. ThT >2) |
| NMWQKIKIQI [JG9] |  |  |  | TEM: 1= fibrils, 0= aggregates (micelle), 0.5 = aggregates and fibrils, -1 = nothing obersved, STD prep ([1]; FigS26): 1; Tht category (> 1.5 to blank = +) ([2]; FigS26): 1 (Tht category (> 1.5 to blank = +)) |
| KVKVKVQV [JG14 / TG14] | 0.5 | 5.801 | 1 (ThT. Cat is 1, if Rel. ThT >2) |  |
| RGEKIKIQINM [CN18] | 1 | 3.423 | 1 (ThT. Cat is 1, if Rel. ThT >2) |  |
| IFQINS [reference compound] |  |  |  | Fibril / Fibril Formation [1]: 1; ThT Cat. / ThT-Fluorescence (categorical) [2]: 1 (ThT. Cat is 1, if Rel. ThT >2) |
| HHHHKAKAKAKAYYYY [TM10] | 0 | 1.39 | 0 (ThT-inactive (N-Fold <2)) |  |
| RGECKFKFQF [CN16] | 1 | 2.392 | 1 (ThT. Cat is 1, if Rel. ThT >2) |  |
| KAKLTCT |  |  |  | Fibril / Fibril Formation [1]: 0; ThT Cat. / ThT-Fluorescence (categorical) [2]: 0 (ThT-inactive (N-Fold <2)) |
| KIKIQINMWWWQ [VH12] | 0.5 |  | 0 (ThT-inactive (N-Fold <2)) | Tht rel to blank (42.1851851851852) [2, 5]: 1.301 |
| RFWFWFW |  |  |  | Fibril / Fibril Formation [1]: 0; ThT Cat. / ThT-Fluorescence (categorical) [2]: 1 (ThT. Cat is 1, if Rel. ThT >2) |
| KIKIWIW |  |  |  | Fibril / Fibril Formation [1]: 1; ThT Cat. / ThT-Fluorescence (categorical) [2]: 0 (ThT-inactive (N-Fold <2)) |
| KVKVQVVV [TG8] | 1 | 0.8863 | 0 (ThT-inactive (N-Fold <2)) | Tht rel to blank (42.1851851851852) [2, 4]: 0.8863 |
| KIKIQINMWA [JR1] |  |  |  | TEM: 1= fibrils, 0= aggregates (micelle), 0.5 = aggregates and fibrils, -1 = nothing obersved, STD prep ([1]; FigS26): 1; Tht category (> 1.5 to blank = +) ([2]; FigS26): 0 (Tht category (> 1.5 to blank = +)) |
| KFKFQFFF [TG12] | 1 | 2.58 | 1 (ThT. Cat is 1, if Rel. ThT >2) | Tht rel to blank (42.1851851851852) [2, 4]: 2.58; Tht rel to blank (42.1851851851852) [2, 5]: 2.58 |

From publication PMC10447463, “Data-mining unveils structure–property–activity correlation of viral infectivity enhancing self-assembling peptides” (Nature Communications, 2023)
